Like-named read-outs stand apart in the source and are kept apart here. One block for each compound: values may come before it.
What was measured:
[1] = assay type: physicochemical
Description: (§1) For the examples below, turbidity is reported in NTUs and was measured at 20±2° C. using a Hach 2100AN Turbidimeter. The instrument was calibrated using a STABLCAL Calibration Kit including samples having turbidities ranging from 0.1 NTU to 7500 NTU. Test samples were measured in a Turbidimeter glass vial and NTU values were read after a 30 second stabilization period.
Suspensions of 1 weight percent rebaudioside D in water at ambient temperature were prepared in five individual beakers. Rebaudioside A, stevioside, rebaudioside C, and rebaudioside M were added to each of the first four beakers, respectively, such that that the resulting weight ratio of rebaudioside D to the added steviol glycoside was 1:5. As a control, no additional steviol glycoside was added to the fifth beaker.
After stirring, turbidity measurements were taken from each of the five samples and graphed. According to the turbidity measurements, rebaudiosides A and M had no effect on rebaudioside D solubility.

[2] = assay type: physicochemical; remark: listed apart in the source
Description: as §1
Varying concentrations of rebaudioside A, rebaudioside C, rebaudioside B, and rebaudioside M were then added individually to the stevioside/rebaudioside D solutions at 70° C. The solutions were allowed to cool to room temperature. Each sample's appearance was noted and turbidity measurements were taken to track solubility.

[3] = assay type: physicochemical; remark: listed apart in the source
Description: Rebaudioside D has a better sugar character and taste profile than Rebaudioside A, but only about 200 ppm Rebaudioside D can be solubilized in water at 23° C. after about 30 minutes stirring. While up to about 450 ppm rebaudioside can be solubilized after extended stirring, the amount of time required to prepare these higher concentration rebaudioside D solutions is impractical on a commercial scale. Similarly, while an 8000 ppm aqueous rebaudioside D solution can be prepared by heating rebaudioside D in water to nearly 100° C. for two hours, cooling the solution results in recrystallization, making the solution impractical to work with on a commercial manufacturing scale.
For example, in certain embodiments, rebaudioside D solubility can be increased 50 fold, for example, from about 200 ppm (0.02 weight percent) up to about 10,000 ppm (1 weight percent), when a 1 weight percent rebaudioside D suspension is combined with sufficient stevioside to produce a 50,000 ppm (5 weight percent) steviol glycoside solution. In other embodiments, even greater increases in rebaudioside D solubility can be observed.

[4] = Example 1: room temperature rebaudioside D solubility (turbidity); assay type: physicochemical; settings: 0.02 to 1.5 weight percent, ambient temperature, FIG. 1
Description: as §1
Rebaudioside D was added to a number of beakers in increasing concentrations (0.02 weight percent, 0.04 weight percent, 0.1 weight percent, 0.5 weight percent, 1 weight percent, and 1.5 weight percent) at ambient temperature. Turbidity measurements were taken to track solubility in the various samples and the results were plotted (FIG. 1).

[5] = Example 2: rebaudioside D solubility at elevated temperatures (turbidity); assay type: physicochemical
Description: as §1
The samples prepared in Example 1 were heated to 70° C. and turbidity was measured again. At 70° C., the 0.5 weight percent rebaudioside D sample was soluble. But the 1 and 1.5 weight percent rebaudioside D samples continued to show maximum turbidity (about 12,000 NTU).

[6] = Example 8: effect of temperature on solubility (appearance, turbidity); assay type: physicochemical
Description: as §1
Aqueous samples containing the amounts of rebaudioside D and stevioside listed in Table 3 were prepared by combining the noted amounts of rebaudioside D and stevioside in water. The samples were then warmed to the temperatures noted in the table.
The appearance of all the samples prepared as above was noted and turbidity measurements were taken to track solubility.

[7] = Example 9: HPLC analysis of aqueous filtrate after centrifugation and filtration; assay type: physicochemical; settings: rebaudioside B added at 0.4% to stevioside/rebaudioside D solution, centrifuged, filtered
Description: To confirm that the cloudiness observed in samples comprising rebaudioside B was due to the rebaudioside B itself, a solution of stevioside and rebaudioside D was prepared and rebaudioside B was added at a concentration of 0.4% to form a cloudy suspension. The sample was centrifuged and filtered and the aqueous filtrate was analyzed by HPLC. […] Thus, the cloudiness observed with the addition of rebaudioside B was due to the insolubility of rebaudioside B itself, and not due to the degradation of the rebaudioside D/stevioside complex.

[8] = Example 4: temperature and low shear mixing (turbidity, HPLC of supernatant); assay type: physicochemical
Description: This study was conducted with a 5:1 mixture (weight/weight) of rebaudioside A and rebaudioside D and a 5:1 mixture (weight/weight) of a rebaudioside A composition and rebaudioside D, wherein the rebaudioside A composition included 30 weight percent stevioside.
The described blends were individually combined with water to produce compositions having rebaudioside D concentrations of 1.4 weight percent based on the total mass of the mixture, including water. The mixtures were then mixed under low shear for 10 minutes at ambient temperature (21° C.). A 100 g sample was removed and centrifuged, and the resulting supernatant was analyzed for turbidity and rebaudioside A and D concentration (HPLC).
The mixtures were then warmed to 45° C. and mixed for 10 minutes. Another 100 g sample was removed and analyzed as described above.
The mixtures were finally warmed to 65° C. and mixed for 10 minutes. Another 100 g sample was removed an analyzed as described above.
This experiment was repeated with 10:1 mixtures of the compositions described above, wherein the final rebaudioside D concentration in each of the compositions was 1.43 weight percent, based on the total mass of the composition, including water.

effect of added steviol glycoside on rebaudioside D solubility [1]: no effect
Compound: C=C1C[C@@]23CC[C@H]4[C@@](C)(CCC[C@@]4(C)C(=O)O[C@@H]4O[C@H](CO)[C@@H](O)[C@H](O[C@@H]5O[C@H](CO)[C@@H](O)[C@H](O)[C@H]5O)[C@H]4O[C@@H]4O[C@H](CO)[C@@H](O)[C@H](O)[C@H]4O)[C@@H]2CC[C@]1(O[C@@H]1O[C@H](CO)[C@@H](O)[C@H](O[C@@H]2O[C@H](CO)[C@@H](O)[C@H](O)[C@H]2O)[C@H]1O[C@@H]1O[C@H](CO)[C@@H](O)[C@H](O)[C@H]1O)C3 [rebaudioside M]
effect of adding the steviol glycoside on rebaudioside D's solubility [2]: does not affect rebaudioside D's solubility

aqueous rebaudioside D solution that can be prepared by heating [3]: 8000 ppm
solubility in water at room temperature [4]: insoluble
solubility in water ([5]; 0.5 weight percent sample at 70° C.): soluble
turbidity ([5]; 1 and 1.5 weight percent samples at 70° C.): about 12,000 NTU
solubility of rebaudioside D ([6]; concentration of 0.1%, 20° C., even up to a 4:1 ratio of stevioside to rebaudioside D): insoluble
Compound: C=C1C[C@@]23CC[C@H]4[C@@](C)(CCC[C@@]4(C)C(=O)O[C@@H]4O[C@H](CO)[C@@H](O)[C@H](O)[C@H]4O[C@@H]4O[C@H](CO)[C@@H](O)[C@H](O)[C@H]4O)[C@@H]2CC[C@]1(O[C@@H]1O[C@H](CO)[C@@H](O)[C@H](O[C@@H]2O[C@H](CO)[C@@H](O)[C@H](O)[C@H]2O)[C@H]1O[C@@H]1O[C@H](CO)[C@@H](O)[C@H](O)[C@H]1O)C3 [rebaudioside D]
solubility of rebaudioside D at 70° C. and on cooling ([6]; all four concentrations of rebaudioside D below 0.4): dissolved at 70° C., but precipitated from solution when cooled unless stevioside was present

solubility [2]: insoluble
appearance after adding the steviol glycoside ([2]; added at or over 0.2% to stevioside/rebaudioside D solution): cloudy solution
share of the amount initially added contained in the aqueous filtrate [7]: 65%
Compound: rebaudioside B

effect of added steviol glycoside on rebaudioside D solubility [1]: clear mixture
Compound: C=C1C[C@@]23CC[C@H]4[C@@](C)(CCC[C@@]4(C)C(=O)O[C@@H]4O[C@H](CO)[C@@H](O)[C@H](O)[C@H]4O)[C@@H]2CC[C@]1(O[C@@H]1O[C@H](CO)[C@@H](O)[C@H](O)[C@H]1O[C@@H]1O[C@H](CO)[C@@H](O)[C@H](O)[C@H]1O)C3 [stevioside]

effect of added steviol glycoside on rebaudioside D solubility [1]: no effect
Compound: C=C1C[C@@]23CC[C@H]4[C@@](C)(CCC[C@@]4(C)C(=O)O[C@@H]4O[C@H](CO)[C@@H](O)[C@H](O)[C@H]4O)[C@@H]2CC[C@]1(O[C@@H]1O[C@H](CO)[C@@H](O)[C@H](O[C@@H]2O[C@H](CO)[C@@H](O)[C@H](O)[C@H]2O)[C@H]1O[C@@H]1O[C@H](CO)[C@@H](O)[C@H](O)[C@H]1O)C3 [rebaudioside A]
effect on solubility of rebaudioside D ([8]; 5:1 mixture with rebaudioside D, 1.4 weight percent rebaudioside D, low shear 10 minutes, at each of 21° C., 45° C. and 65° C.): neither rebaudioside A nor the rebaudioside A/stevioside composition including 30 weight percent stevioside enhanced the solubility of rebaudioside D
effect on solubility of rebaudioside D ([8]; 10:1 mixture with rebaudioside D, 1.43 weight percent rebaudioside D, low shear): did not enhance the solubility of rebaudioside D
effect of adding the steviol glycoside on rebaudioside D's solubility [2]: does not affect rebaudioside D's solubility

turbidity ([1]; 1 weight percent rebaudioside D in water, ambient temperature, rebaudioside D to added steviol glycoside 1:5 by weight, FIG. 3): about 1000 NTU
Compound: rebaudioside C
effect of adding the steviol glycoside on rebaudioside D's solubility [2]: does not affect rebaudioside D's solubility

Source: patent US11998033B2, “Sweetening compositions” (PepsiCo, Inc., priority 2016, dated 2024)
